Assay results as given in patent publication US20080248568A1, “Directed Neural Differentiation” (The University Court of the University of Edinburgh, priority 2005, published 2008).

Tests used:
ES cells = assay: Toxic effects of inhibitors in ES cell monolayer differentiation cultures; format: cell-based, mouse; conditions: 4 μM
Description: (§1) This is as described in detail in Ying et al., 2003b. Briefly, ES cells were washed to remove all traces of serum and then plated on gelatin-coated tissue culture plastic at a density of 1>10^4 cells/cm^2 in N2B27 serum-free medium. N2B27 consists of a 1:1 ratio of DM/F12 and Neurobasal media supplemental with 0.5% N2 (made in house as described in (Ying et al., 2003b)), 0.5% B27 (Gibco) and 2-mercaptoethanol. Media was changed every second day.
(§2) In some experiments, the culture medium was supplemented with 100 units/ml LIF and with 10% FCS. The MAPK inhibitor PD184352 (gift of P. Cohen, Univ Dundee) was used at a concentration of 4 μM. The gamma secretase inhibitor (Calbiochem cat. 565771) was used at a concentration of 4 μM.

NotchIC cells = assay: Monolayer differentiation of NotchIC ES cells, sox1-GFP by FACS; format: cell-based, mouse; conditions: 4 μM inhibitor, sox1-GFP positive cells by FACS
Description: Intact cultures were stained for Oct4 on day 5 to visualise undifferentiated ES cells.
as §1, §2

SMILES	toxic effects over the time course of the experiments (ES cells)	induction of sox1 in NotchIC cells (NotchIC cells)
O=C(NOCC1CC1)c1ccc(F)c(F)c1Nc1ccc(I)cc1Cl [PD184352]	Neither of these inhibitors had any obvious toxic effects	able to block induction of sox1
Cc1c[nH]c(/C=C2\C(=O)Nc3ccccc32)c1CCC(=O)O [SU5402]		able to block induction of sox1
